Measurements as given in paper PMC5453931, “Cathelicidin-trypsin inhibitor loop conjugate represents a promising antibiotic candidate with protease stability” (Scientific Reports, 2017).
≈ marks a conversion by molar mass, not a printed value. Where two headings read alike, the source gives them in different places. Where a SMILES comes first, the peptide text is derived from it.

What was measured:
Type in all cases: cell-based
C. albican = settings: 18 h
Protocol: (§1) A two-fold broth microdilution method described in our previous paper was used to determine the antimicrobial activities of parental and hybrid peptides. More than 30 strains including Gram-negative bacteria, Gram-positive bacteria and fungi were used in the current assay, in which the standard strains were stored in our lab and the clinical strains were collected from local hospitals. Briefly, bacteria were incubated in Mueller-Hinton broth (MH broth) at 37 °C to exponential phase and diluted to 10^6 CFU/mL. A serial dilution of peptide sample were prepared in 96-well microtiter plates (50 μL) and mixed with equal volume of microbial inoculums (50 μL). The plate was slowly shaken in the microbial incubator, and measured at A595 after incubation at 37 °C for 18 h. The minimal concentrations at which no microbial growth occurred were recorded as MIC (minimal inhibitory concentration) values. The traditional antibiotic ampicillin was used as positive control. The results are shown in an average of the MICs obtained from three independent experiments.

B. subtilis = settings: 18 h
Protocol: as §1

P. aeruginosa = settings: 18 h
Protocol: as §1

E. coli = settings: 18 h
Protocol: as §1

S. dysenteria = settings: two-fold broth microdilution, MH broth, 37 °C, 18 h, A595; mean of three independent experiments in duplicate
Protocol: as §1

P. mirabilis = settings: 18 h
Protocol: as §1

S. aureus = settings: 18 h
Protocol: as §1

Vibrio Parahaemolyticus = assay: MIC, two-fold broth microdilution; settings: Vibrio parahaemolyticus, 18 h, read-out: MIC Vibrio Parahaemolyticus
Protocol: as §1

[1] = two-fold broth microdilution, MH broth, 37 °C, A595, mean of three independent experiments in duplicate

Row | Compound | MIC C. albican (C. albican) [mg/L] | MIC B. subtilis (B. subtilis) [mg/L] | MIC P. aeruginosa (P. aeruginosa) [mg/L] | MIC E. coli (E. coli) [mg/L] | MIC S. dysenteria (S. dysenteria) [mg/L] | MIC P. mirabilis (P. mirabilis) [mg/L] | MIC S. aureus (S. aureus) [mg/L] | also measured
1 | CC(C)C[C@H](NC(=O)[C@H](CCCNC(=N)N)NC(=O)[C@H](CCCCN)NC(=O)[C@H](Cc1ccccc1)NC(=O)[C@H](Cc1ccccc1)NC(=O)[C@@H](N)CCCCN)C(=O)N[C@@H](CC(C)C)C(=O)N[C@@H](CCCCN)C(=O)N[C@@H](CO)C(=O)N[C@H](C(=O)N[C@@H](CCCNC(=N)N)C(=O)N[C@@H](CCCNC(=N)N)C(=O)N[C@@H](C)C(=O)N[C@H](C(=O)N[C@@H](CCCCN)C(=O)N[C@@H](CCCCN)C(=O)N[C@@H](Cc1ccccc1)C(=O)N[C@@H](CCCNC(=N)N)C(N)=O)C(C)C)C(C)C [Hc2] (H-KFFKRLLKSVRRAVKKFR-NH2) | 9.38 (≈ 4.07 µM) | 18.75 (≈ 8.13 µM) | 9.38 (≈ 4.07 µM) | 9.38 (≈ 4.07 µM) | 2.34 (≈ 1.01 µM) | 9.38 (≈ 4.07 µM) | 9.38 (≈ 4.07 µM) | –
2 | CC(C)C[C@H](NC(=O)[C@H](CCCNC(=N)N)NC(=O)[C@H](CCCCN)NC(=O)[C@H](Cc1ccccc1)NC(=O)[C@H](Cc1ccccc1)NC(=O)[C@@H](N)CCCCN)C(=O)N[C@@H](CC(C)C)C(=O)N[C@@H](CCCCN)C(=O)N[C@@H](CO)C(=O)N[C@H](C(=O)N[C@@H](CCCNC(=N)N)C(=O)N[C@@H](CCCNC(=N)N)C(=O)N[C@@H](C)C(=O)N[C@H](C(=O)N[C@@H](CCCCN)C(=O)N[C@@H](CCCCN)C(N)=O)C(C)C)C(C)C [Hc4] (H-KFFKRLLKSVRRAVKK-NH2) | 75 (≈ 37.4 µM) | – | 150 (≈ 74.9 µM) | 75 (≈ 37.4 µM) | 4.69 (≈ 2.34 µM) | 75 (≈ 37.4 µM) | 75 (≈ 37.4 µM) | –
3 | CC(C)C[C@H](NC(=O)[C@H](CCCNC(=N)N)NC(=O)[C@H](CCCCN)NC(=O)[C@H](Cc1ccccc1)NC(=O)[C@H](Cc1ccccc1)NC(=O)[C@@H](N)CCCCN)C(=O)N[C@@H](CC(C)C)C(=O)N[C@@H](CCCCN)C(=O)N[C@@H](CO)C(=O)N[C@H](C(=O)N[C@@H](CCCNC(=N)N)C(=O)N[C@@H](CCCNC(=N)N)C(=O)N[C@@H](C)C(=O)N[C@H](C(=O)N[C@@H](CCCCN)C(N)=O)C(C)C)C(C)C [Hc5] (H-KFFKRLLKSVRRAVK-NH2) | 37.5 (≈ 20 µM) | 150 (≈ 80 µM) | 75 (≈ 40 µM) | 37.5 (≈ 20 µM) | 4.69 (≈ 2.5 µM) | 18.75 (≈ 10 µM) | 37.5 (≈ 20 µM) | –
4 | CC(C)C[C@H](NC(=O)[C@H](CCCNC(=N)N)NC(=O)[C@H](CCCCN)NC(=O)[C@H](Cc1ccccc1)NC(=O)[C@H](Cc1ccccc1)NC(=O)[C@@H](N)CCCCN)C(=O)N[C@@H](CC(C)C)C(=O)N[C@@H](CCCCN)C(=O)N[C@@H](CO)C(=O)N[C@H](C(=O)N[C@@H](CCCNC(=N)N)C(=O)N[C@@H](CCCNC(=N)N)C(=O)N[C@@H](C)C(=O)N[C@H](C(N)=O)C(C)C)C(C)C [Hc6] (H-KFFKRLLKSVRRAV-NH2) | 75 (≈ 42.9 µM) | 150 (≈ 85.9 µM) | 150 (≈ 85.9 µM) | 75 (≈ 42.9 µM) | 18.75 (≈ 10.7 µM) | 37.5 (≈ 21.5 µM) | 75 (≈ 42.9 µM) | –
5 | CC(C)C[C@H](NC(=O)[C@H](CCCNC(=N)N)NC(=O)[C@H](CCCCN)NC(=O)[C@H](Cc1ccccc1)NC(=O)[C@H](Cc1ccccc1)NC(=O)[C@@H](N)CCCCN)C(=O)N[C@@H](CC(C)C)C(=O)N[C@@H](CCCCN)C(=O)N[C@@H](CO)C(=O)N[C@H](C(=O)N[C@@H](CCCNC(=N)N)C(=O)N[C@@H](CCCNC(=N)N)C(=O)N[C@@H](C)C(N)=O)C(C)C [Hc7] (H-KFFKRLLKSVRRA-NH2) | – | – | 150 (≈ 91 µM) | – | 75 (≈ 45.5 µM) | – | – | –
6 | CC(C)C[C@H](NC(=O)[C@H](CC(C)C)NC(=O)[C@H](CCCNC(=N)N)NC(=O)[C@H](CCCCN)NC(=O)[C@@H](N)Cc1ccccc1)C(=O)N[C@@H](CCCCN)C(=O)N[C@@H](CO)C(=O)N[C@H](C(=O)N[C@@H](CCCNC(=N)N)C(=O)N[C@@H](CCCNC(=N)N)C(=O)N[C@@H](C)C(=O)N[C@H](C(=O)N[C@@H](CCCCN)C(=O)N[C@@H](CCCCN)C(=O)N[C@@H](Cc1ccccc1)C(=O)N[C@@H](CCCNC(=N)N)C(=O)N[C@@H](CCCCN)C(N)=O)C(C)C)C(C)C [Hc9] (H-FKRLLKSVRRAVKKFRK-NH2) | 150 (≈ 69.5 µM) | – | 150 (≈ 69.5 µM) | 150 (≈ 69.5 µM) | 18.75 (≈ 8.68 µM) | – | 9.38 (≈ 4.34 µM) | –
7 | CC(C)C[C@H](NC(=O)[C@H](CC(C)C)NC(=O)[C@@H](N)CCCNC(=N)N)C(=O)N[C@@H](CCCCN)C(=O)N[C@@H](CO)C(=O)N[C@H](C(=O)N[C@@H](CCCNC(=N)N)C(=O)N[C@@H](CCCNC(=N)N)C(=O)N[C@@H](C)C(=O)N[C@H](C(=O)N[C@@H](CCCCN)C(=O)N[C@@H](CCCCN)C(=O)N[C@@H](Cc1ccccc1)C(=O)N[C@@H](CCCNC(=N)N)C(=O)N[C@@H](CCCCN)C(N)=O)C(C)C)C(C)C [Hc11] (H-RLLKSVRRAVKKFRK-NH2) | – | – | – | – | 150 (≈ 79.6 µM) | – | – | –
8 | CC(C)C[C@H](NC(=O)[C@H](CC(C)C)NC(=O)[C@H](CCCNC(=N)N)NC(=O)[C@H](CCCCN)NC(=O)[C@@H](N)Cc1ccccc1)C(=O)N[C@@H](CCCCN)C(=O)N[C@@H](CO)C(=O)N[C@H](C(=O)N[C@@H](CCCNC(=N)N)C(=O)N[C@@H](CCCNC(=N)N)C(=O)N[C@@H](C)C(=O)N[C@H](C(=O)N[C@@H](CCCCN)C(=O)N[C@@H](CCCCN)C(=O)N[C@@H](Cc1ccccc1)C(N)=O)C(C)C)C(C)C [Hc15] (H-FKRLLKSVRRAVKKF-NH2) | – | – | – | 75 (≈ 40 µM) | 37.5 (≈ 20 µM) | – | – | –
9 | CC[C@H](C)[C@H](NC(=O)[C@H](CC(C)C)NC(=O)[C@H](CCCNC(=N)N)NC(=O)[C@@H]1CCCN1C(=O)[C@H](CCCCN)NC(=O)[C@H](CCCCN)NC(=O)[C@H](CCCNC(=N)N)NC(=O)[C@H](Cc1ccccc1)NC(=O)[C@H](CCCCN)NC(=O)[C@H](CCCCN)NC(=O)[C@@H](NC(=O)[C@H](C)NC(=O)[C@H](CCCNC(=N)N)NC(=O)[C@H](CCCNC(=N)N)NC(=O)[C@@H](NC(=O)[C@H](CO)NC(=O)[C@H](CCCCN)NC(=O)[C@H](CC(C)C)NC(=O)[C@H](CC(C)C)NC(=O)[C@H](CCCNC(=N)N)NC(=O)[C@H](CCCCN)NC(=O)[C@H](Cc1ccccc1)NC(=O)[C@H](Cc1ccccc1)NC(=O)[C@@H](N)CCCCN)C(C)C)C(C)C)C(=O)NCC(=O)N[C@@H](CC(C)C)C(=O)N[C@@H](CO)C(=O)N[C@H](C(=O)N[C@@H](CC(C)C)C(=O)N[C@@H](CC(C)C)C(=O)O)[C@@H](C)O [Hc-CATH, reference compound] (H-KFFKRLLKSVRRAVKKFRKKPRLIGLSTLL-OH) | – | – | – | – | 0.59 (≈ 0.163 µM) | – | – | MIC C. albican (C. albican; [1]): 4.69 mg/L (≈ 1.29 µM); MIC B. subtilis (B. subtilis; [1]): 75 mg/L (≈ 20.7 µM); MIC P. aeruginosa (P. aeruginosa; [1]): 18.75 mg/L (≈ 5.17 µM); MIC E. coli (E. coli; [1]): 2.34 mg/L (≈ 0.645 µM); MIC P. mirabilis (P. mirabilis; [1]): 4.69 mg/L (≈ 1.29 µM); MIC S. aureus (S. aureus; [1]): 4.69 mg/L (≈ 1.29 µM)
10 | C[C@@H](O)[C@H]1C(=O)N2C(C(=O)O)=C(S[C@@H]3CN[C@H](C(=O)N(C)C)C3)[C@H](C)[C@H]12 [Meropenem, reference compound] | – | – | – | – | – | – | – | MIC (Vibrio Parahaemolyticus): 0.47 mg/L (≈ 1.23 µM)
